This passage reports melting point results from patent US20090054435A1, “Phenoxyalkanoic Acid Compound” (priority 2005, published 2009).

On to `COc1ccc(C(=O)c2cccc(OCc3nc(-c4ccccc4)oc3C)c2)c(OCCOC(C)=O)c1` [Example 2, (5-methoxy-2-{3-[(5-methyl-2-phenyl-1,3-oxazol-4-yl)methoxy]benzoyl}phenoxy)ethyl acetate], for which the melting point (commonly the temperature of the solid-liquid transition) was 90 to 91 °C.

Compound `COc1ccc(C(=O)c2cccc(OCc3nc(-c4ccccc4)oc3C)c2)c(OCC(=O)O)c1` [Example 4, (5-methoxy-2-{3-[(5-methyl-2-phenyl-1,3-oxazol-4-yl)methoxy]benzoyl}phenoxy)acetic acid] returned a melting point of 198 to 199 °C.

Regarding `COc1ccc(C(C)(O)c2cccc(OCc3nc(-c4ccccc4)oc3C)c2)c(OCCOC(C)=O)c1` (stereo not shown) [Example 5, [2-(1-hydroxy-1-{3-[(5-methyl-2-phenyl-1,3-oxazol-4-yl)methoxy]phenyl}ethyl)-5-methoxyphenoxy]ethyl acetate], the melting point was in the range of 144 to 145 °C.

Compound `COc1ccc(C(C)(O)c2cccc(OCc3nc(-c4ccccc4)oc3C)c2)c(OCC(=O)O)c1` (stereo not shown) [Example 6, [2-(1-hydroxy-1-{3-[(5-methyl-2-phenyl-1,3-oxazol-4-yl)methoxy]phenyl}ethyl)-5-methoxyphenoxy]acetic acid] displayed a melting point of 148 to 149 °C.

In the case of `CCOC(c1cccc(OCc2nc(-c3ccccc3)oc2C)c1)c1ccc(OC)cc1OCC(=O)O` (stereo not shown) [Example 7, [2-(ethoxy{3-[(5-methyl-2-phenyl-1,3-oxazol-4-yl)methoxy]phenyl}methyl)-5-methoxyphenoxy]acetic acid], the melting point lay within 129 to 130 °C.

As for `Cc1oc(-c2ccccc2)nc1COc1ccc(C(=O)c2ccccc2OCC(=O)O)cc1` [Example 8, (2-{4-[(5-methyl-2-phenyl-1,3-oxazol-4-yl)methoxy]benzoyl}phenoxy)acetic acid], the melting point lay within 174 to 175 °C.

The compound `Cc1oc(-c2ccccc2)nc1COc1ccc(C(=O)c2ccc(O)cc2OCC(=O)O)cc1` [Example 11, (5-hydroxy-2-{4-[(5-methyl-2-phenyl-1,3-oxazol-4-yl)methoxy]benzoyl}phenoxy)acetic acid] had a melting point of 229 to 230 °C.

Compound `CCOC(=O)COc1cc(O)ccc1C(=O)c1ccc(OCc2nc(-c3ccccc3)oc2C)cc1` [Example 12, ethyl (5-hydroxy-2-{4-[(5-methyl-2-phenyl-1,3-oxazol-4-yl)methoxy]benzoyl}phenoxy)acetate] showed a melting point of 184 to 186 °C.

The compound `COc1ccc(C(=O)c2ccc(OCc3nc(-c4ccccc4)oc3C)cc2)c(OC(C)C(=O)O)c1` (stereo not shown) [Example 13, 2-(5-methoxy-2-{4-[(5-methyl-2-phenyl-1,3-oxazol-4-yl)methoxy]benzoyl}phenoxy)propanoic acid] gave a melting point of 100 to 102 °C.

In the case of `COc1ccc(C(=O)c2ccc(OCc3nc(-c4ccccc4)oc3C)cc2)c(OCCC(=O)O)c1` [Example 15, 3-(5-methoxy-2-{4-[(5-methyl-2-phenyl-1,3-oxazol-4-yl)methoxy]benzoyl}phenoxy)propanoic acid], the melting point fell in the range of 142 to 143 °C.

Regarding `CCC(Oc1cc(OC)ccc1C(=O)c1ccc(OCc2nc(-c3ccccc3)oc2C)cc1)C(=O)O` (stereo not shown) [Example 17, 2-(5-methoxy-2-{4-[(5-methyl-2-phenyl-1,3-oxazol-4-yl)methoxy]benzoyl}phenoxy)butanoic acid], the melting point fell in the range of 161 to 162 °C.

`COc1ccc(C(=O)c2ccc(OCc3nc(-c4ccccc4)oc3C)cc2)c(OC(C(=O)O)C(C)C)c1` (stereo not shown) [Example 18, 2-(5-methoxy-2-{4-[(5-methyl-2-phenyl-1,3-oxazol-4-yl)methoxy]benzoyl}phenoxy)-3-methylbutanoic acid] yielded a melting point of 87 to 88 °C.

The compound `COc1ccc(C(=O)c2ccc(OCc3nc(-c4ccccc4)oc3C)cc2)c(OC(F)(F)C(=O)O)c1` [Example 19, difluoro (5-methoxy-2-{4-[(5-methyl-2-phenyl-1,3-oxazol-4-yl)methoxy]benzoyl}phenoxy)acetic acid] yielded a melting point of 166 to 167 °C.
